Reference: paper PMC12454603 (Archives of Toxicology, 2025)
Where “and” joins values, the source holds several entries; their conditions need not be identical. Equal entries are not always repeated.

Experiments:
[1] = In vivo kinetic study, intravenous 50 mg/kg bw, blood concentrations; settings: rat, 50 mg/kg bw parent PAH
Method: Six male Sprague–Dawley rats at the age of 8–9 weeks weighing 286-305g/rat were obtained from Charles River Inc (Beijing, China). The rats were maintained in plastic cages in two groups of three in a temperature-controlled (ranging from 20 °C to 25 °C) and humidity-controlled (ranging from 40–70%) environment on a 12-h light–dark cycle. The animal bedding was corncob and used after autoclaving. The bedding and the cages were changed twice a week. The number of animals was restricted to 3 per dose group and control blood samples were collected before dosing. Feeding and living conditions followed the Chinese Laboratory Animal-Requirement of environment and housing facilities (GB14925-2010). The present rat study was approved by Institutional Animal Care and Use Committee (IACUC-BF202305006).
All animals were fasted 8 h before intravenous injection and resumed feed supply 4 h after dosing.
After administration, blood samples (0.1–0.2 ml blood volume) were taken from the medial canthus venous plexus of the animal and anticoagulated with sodium heparin. Prior to orbital venipuncture and blood collection, the animals were anesthetized by CO2 inhalation (70% CO2 + 30% O2). Blood was sampled at 1 min, 0.5, 1, 2, 4, 8, 12, 24, 32, 48, and 72 h post-dosing. After collection, blood samples were frozen and were stored at −20 °C until analysis. All animals were euthanized with 100% CO2 after the experiment.
Aliquots of 100 µL of blood samples were transferred into centrifuge tubes and 700 µL sodium acetate buffer (0.1M, pH 5.0) and 6 µL β-glucuronidase-arylsulfatase were added. The samples were incubated for 1 h at 37 °C and subsequently extracted twice with 800 µL ethyl acetate saturated with water. The samples were shaken for 30 min and centrifuged 5 min at 2000 g (4 °C). The upper organic phase was transferred to a centrifuge tube and evaporated under a gentle stream of nitrogen at 40 ℃ in a water bath. The residues were re-dissolved with 200 µL ascorbic acid:methanol (1:100). […]

[2] = Sulfation of 3-OH-8-MBaP in incubations with rat liver S9; format: in vitro ADME; settings: rat, rat liver S9, pH 7.4, rat liver S9, PAPS
Method: (§1) The conjugation of 3-OH-8-MBaP by sulfation was studied in incubations with rat liver S9 in vitro. The incubation time and S9 protein concentration were optimized to ascertain linearity of the sulfation reaction with respect to time and amount of protein. The 200 µL incubation mixture consisted of (final concentrations) […] Tris buffer (pH 7.4), 0.1 mg/ml rat liver S9, 0.2 mM PAPS and 0–100 µM 3-OH-8-MBaP. No metabolites were detected in control incubations without either rat liver S9 or co-factor PAPS. After 1-min pre-incubation of the incubation mixture without substrate, the reaction was initiated by adding substrate from a 100 times concentrated stock solution in DMSO (final concentration 1% DMSO (v/v)). The incubation mixture was incubated at 37 °C for 70 min after which 100 µL ice-cold acetonitrile was added to the incubation mixture to terminate the reaction. The incubation mixture was subsequently centrifuged at 3717g at 4 °C for 5 min. The supernatant was collected for subsequent UPLC analysis.
(§2) An Acquity UPLC system with a photodiode array (PDA) detector was used to quantify the metabolites formed in the glucuronidation and sulfation incubations. The supernatants of the incubation samples were injected onto an Acquity UPLC BEH® C18 column ([…], 1.7 µm, Waters, Milford, MA). The total running time per sample was 22 min with a flow rate of 0.6 ml/min. The temperature of column and auto sampler was 40 °C and 10 °C, respectively. The injection volume was 3.5 µL and the detection wavelength ranged from 190 to 400 nm. Two eluents were used including A (nanopure with 0.1% (v/v) TFA) and B (acetonitrile with 0.1% (v/v) TFA). The gradient elution started from 90% A and 10% B applied from 0.0 min to 0.5 min, which was changed to 10% A and 90% B from 0.5 to 15.5 min and then kept at 10% A and 90% B from 15.5 min to 18.5 min, and changed back to 90% A and 10% B from 18.5 to 22.0 min. Metabolites were quantified as previously described in our study on microsomal metabolism of BaP and several of its methyl substituted analogs (Wang et al [2022]).
(§3) The concentration of the glucuronidated and sulfated metabolites was further used to calculate the velocity of the enzymatic reaction expressed in nmol/min/mg S9 protein. The curve reflecting the substrate (3-OH-8-MBaP) concentration-dependent velocity of the metabolite formation was fitted by the Michaelis–Menten equation using GraphPad Prism 5 (California, USA). The kinetic constants derived included the Km (µM) and Vmax (nmol/min/mg S9 protein).
(§4) 3-OH-8-MBaP was subsequently modeled to be conjugated by glucuronidation and sulfation in the liver. The kinetic constants for these conjugation reactions were determined in incubation experiments described in Sect. […] The scaling factors from rat liver microsomes and rat liver S9 to the whole liver were 45 mg microsomal protein/g liver and 125 mg S9 protein/g liver, respectively (Houston and Galetin [2008]).

[3] = system: rat liver S9; assay: as above; format: in vitro ADME
Method: as §1, §2, §3, §4

**Q.** For `Cc1ccc2c(c1)cc1ccc3c(O)ccc4ccc2c1c43` [3-OH-8-MBaP, 3-Hydroxy-8-methyl-benzo[a]pyrene], which “Observed in vivo Cmax relative to the model prediction (lower)” value [1] is on record?
**A.** 3.4 fold

**Q.** What about the “Observed in vivo blood concentration compared with that of 3-OHBaP” value [1] of the same compound?
**A.** comparable

**Q.** And the Km at 70 min [2]?
**A.** 26 µM

**Q.** And the Km ([3]; rat liver S9, PAPS)?
**A.** 26.1 µM

**Q.** What about the “Vmax, sulfation of 3-OH-8-MBaP” value ([3]; rat liver S9, PAPS) of the same compound?
**A.** 0.15 nmol/min/mg S9 protein and 0.15^e nmol/min/mg S9 protein

**Q.** What about the “Scaled Vmax, sulfation of 3-OH-8-MBaP” value ([3]; scaled to whole liver, liver weight 9.1 g) of the same compound?
**A.** 10 µmol/h/liver

**Q.** What about the “Scaled Vmax, sulfation of 3-OH-8-MBaP” value ([3]; scaled with 125 mg S9 protein/g liver) of the same compound?
**A.** 1.16 µmol/h/g liver
